Reference: ChEMBL document CHEMBL1201861, “Genomics of Drug Sensitity in Cancer screening data, Wellcome Trust Sanger Institute”

Columns and labels:
Format in all cases: functional, cell-based
IPC-298 = experiment: SANGER: Inhibition of human IPC-298 cell growth in a cell viability assay.
SNU-16 = experiment: cells; details: Homo sapiens
Description: SANGER: Inhibition of human NCI-SNU-16 cell growth in a cell viability assay.

NB1 = experiment: cells; details: Homo sapiens
Description: SANGER: Inhibition of human NB1 cell growth in a cell viability assay.

MHH-CALL-2 = experiment: cells; details: Homo sapiens
Description: SANGER: Inhibition of human MHH-CALL-2 cell growth in a cell viability assay.

MG-63 = experiment: cells; details: Homo sapiens
Description: SANGER: Inhibition of human MG-63 cell growth in a cell viability assay.

CAL-33 = experiment: cells; details: Homo sapiens
Description: SANGER: Inhibition of human CAL-33 cell growth in a cell viability assay.

DMS-153 = experiment: cells; details: Homo sapiens
Description: SANGER: Inhibition of human DMS-153 cell growth in a cell viability assay.

MC-CAR = experiment: cells; details: Homo sapiens
Description: SANGER: Inhibition of human MC-CAR cell growth in a cell viability assay.

CAL-39 = experiment: cells; details: Homo sapiens
Description: SANGER: Inhibition of human CAL-39 cell growth in a cell viability assay.

NCI-H596 = experiment: cells; details: Homo sapiens
Description: SANGER: Inhibition of human NCI-H596 cell growth in a cell viability assay.

NCI-H2347 = experiment: cells; details: Homo sapiens
Description: SANGER: Inhibition of human NCI-H2347 cell growth in a cell viability assay.

RPMI-2650 = experiment: cells; details: Homo sapiens
Description: SANGER: Inhibition of human RPMI-2650 cell growth in a cell viability assay.

DG-75 = experiment: cells; details: Homo sapiens
Description: SANGER: Inhibition of human DG-75 cell growth in a cell viability assay.

EFM-19 = experiment: cells; details: Homo sapiens
Description: SANGER: Inhibition of human EFM-19 cell growth in a cell viability assay.

NCI-H64 = experiment: cells; details: Homo sapiens
Description: SANGER: Inhibition of human NCI-H64 cell growth in a cell viability assay.

YKG-1 = experiment: cells; details: Homo sapiens
Description: SANGER: Inhibition of human YKG-1 cell growth in a cell viability assay.

HCT-116 = experiment: cells; details: Homo sapiens
Description: SANGER: Inhibition of human HCT-116 cell growth in a cell viability assay.

DK-MG = experiment: cells; details: Homo sapiens
Description: SANGER: Inhibition of human DK-MG cell growth in a cell viability assay.

SW780 = experiment: cells; details: Homo sapiens
Description: SANGER: Inhibition of human SW780 cell growth in a cell viability assay.

EW-7 = experiment: SANGER: Inhibition of human EW-7 cell growth in a cell viability assay.
HuO-3N1 = experiment: cells; details: Homo sapiens
Description: SANGER: Inhibition of human HuO-3N1 cell growth in a cell viability assay.

SJRH30 = experiment: cells; details: Homo sapiens
Description: SANGER: Inhibition of human SJRH30 cell growth in a cell viability assay.

PA-1 = experiment: cells; details: Homo sapiens
Description: SANGER: Inhibition of human PA-1 cell growth in a cell viability assay.

T-24 = experiment: cells; details: Homo sapiens
Description: SANGER: Inhibition of human T-24 cell growth in a cell viability assay.

AN3-CA = experiment: cells; details: Homo sapiens
Description: SANGER: Inhibition of human AN3-CA cell growth in a cell viability assay.

Calu-1 = experiment: SANGER: Inhibition of human Calu-1 cell growth in a cell viability assay.
VMRC-RCZ = experiment: cells; details: Homo sapiens
Description: SANGER: Inhibition of human VMRC-RCZ cell growth in a cell viability assay.

C3A = experiment: cells; details: Homo sapiens
Description: SANGER: Inhibition of human C3A cell growth in a cell viability assay.

HCC38 = experiment: cells; details: Homo sapiens
Description: SANGER: Inhibition of human HCC38 cell growth in a cell viability assay.

SNU-423 = experiment: cells; details: Homo sapiens
Description: SANGER: Inhibition of human SNU-423 cell growth in a cell viability assay.

HN = experiment: cells; details: Homo sapiens
Description: SANGER: Inhibition of human HN cell growth in a cell viability assay.

CAL-27 = experiment: cells; details: Homo sapiens
Description: SANGER: Inhibition of human CAL-27 cell growth in a cell viability assay.

NCI-H748 = experiment: cells; details: Homo sapiens
Description: SANGER: Inhibition of human NCI-H748 cell growth in a cell viability assay.

TUR = experiment: cells; details: Homo sapiens
Description: SANGER: Inhibition of human TUR cell growth in a cell viability assay.

RT-4 = experiment: SANGER: Inhibition of human RT4 cell growth in a cell viability assay.
MC-IXC = experiment: cells; details: Homo sapiens
Description: SANGER: Inhibition of human MC-IXC cell growth in a cell viability assay.

LCLC-97TM1 = experiment: cells; details: Homo sapiens
Description: SANGER: Inhibition of human LCLC-97TM1 cell growth in a cell viability assay.

KMS-12-PE = experiment: cells; details: Homo sapiens
Description: SANGER: Inhibition of human KMS-12-PE cell growth in a cell viability assay.

SR = experiment: cells; details: Homo sapiens
Description: SANGER: Inhibition of human SR cell growth in a cell viability assay.

TGW = experiment: cells; details: Homo sapiens
Description: SANGER: Inhibition of human TGW cell growth in a cell viability assay.

KYSE-150 cell line = experiment: cells; details: Homo sapiens
Description: SANGER: Inhibition of human KYSE-150 cell growth in a cell viability assay.

Hs-578T = experiment: cells; details: Homo sapiens
Description: SANGER: Inhibition of human Hs-578-T cell growth in a cell viability assay.

CMK = experiment: cells; details: Homo sapiens
Description: SANGER: Inhibition of human CMK cell growth in a cell viability assay.

CAMA-1 = experiment: cells; details: Homo sapiens
Description: SANGER: Inhibition of human CAMA-1 cell growth in a cell viability assay.

TCC-SUP = experiment: cells; details: Homo sapiens
Description: SANGER: Inhibition of human TCCSUP cell growth in a cell viability assay.

HOP-92 = experiment: cells; details: Homo sapiens
Description: SANGER: Inhibition of human HOP-92 cell growth in a cell viability assay.

NCI-H2009 = experiment: cells; details: Homo sapiens
Description: SANGER: Inhibition of human NCI-H2009 cell growth in a cell viability assay.

NCI-H460 = experiment: cells; details: Homo sapiens
Description: SANGER: Inhibition of human NCI-H460 cell growth in a cell viability assay.

RMG-I = experiment: cells; details: Homo sapiens
Description: SANGER: Inhibition of human RMG-I cell growth in a cell viability assay.

IST-SL2 = experiment: cells; details: Homo sapiens
Description: SANGER: Inhibition of human IST-SL2 cell growth in a cell viability assay.

OVCAR-8 = experiment: cells; details: Homo sapiens
Description: SANGER: Inhibition of human OVCAR-8 cell growth in a cell viability assay.

NUGC-3 = experiment: cells; details: Homo sapiens
Description: SANGER: Inhibition of human NUGC-3 cell growth in a cell viability assay.

HMV-2 cell line = experiment: cells; details: Homo sapiens
Description: SANGER: Inhibition of human HMV-II cell growth in a cell viability assay.

Ca-Ski = experiment: cells; details: Homo sapiens
Description: SANGER: Inhibition of human Ca-Ski cell growth in a cell viability assay.

SW1783 = experiment: cells; details: Homo sapiens
Description: SANGER: Inhibition of human SW1783 cell growth in a cell viability assay.

T47D = experiment: cells; details: Homo sapiens
Description: SANGER: Inhibition of human T47D cell growth in a cell viability assay.

HCC2157 = experiment: cells; details: Homo sapiens
Description: SANGER: Inhibition of human HCC2157 cell growth in a cell viability assay.

U-251 = experiment: cells; details: Homo sapiens
Description: SANGER: Inhibition of human U251 cell growth in a cell viability assay.

CAL-54 = experiment: cells; details: Homo sapiens
Description: SANGER: Inhibition of human CAL-54 cell growth in a cell viability assay.

SW756 = experiment: cells; details: Homo sapiens
Description: SANGER: Inhibition of human SW756 cell growth in a cell viability assay.

## N#C/C(=C1/Nc2ccccc2S1)c1ccnc(NCCc2cccnc2)n1
IPC-298
  IC50: 7.4 µM
SNU-16
  IC50: > 8 µM
NB1
  IC50: > 8 µM
MHH-CALL-2
  IC50: > 8 µM
MG-63
  IC50: 3.29 µM
CAL-33
  IC50: > 8 µM
DMS-153
  IC50: > 8 µM
MC-CAR
  IC50: > 8 µM
CAL-39
  IC50: > 8 µM
NCI-H596
  IC50: > 8 µM
NCI-H2347
  IC50: > 8 µM
RPMI-2650
  IC50: 2580 nM
DG-75
  IC50: > 8 µM
EFM-19
  IC50: 5.39 µM
NCI-H64
  IC50: > 8 µM
YKG-1
  IC50: 3.77 µM
HCT-116
  IC50: > 8 µM
DK-MG
  IC50: > 8 µM
SW780
  IC50: > 8 µM
EW-7
  IC50: > 8 µM
HuO-3N1
  IC50: 815 nM
SJRH30
  IC50: > 8 µM
PA-1
  IC50: 1530 nM
T-24
  IC50: > 8 µM
AN3-CA
  IC50: 2590 nM
Calu-1
  IC50: > 8 µM
VMRC-RCZ
  IC50: 7.77 µM
C3A
  IC50: 2810 nM
HCC38
  IC50: 5.3 µM
SNU-423
  IC50: 2300 nM
HN
  IC50: > 8 µM
CAL-27
  IC50: > 8 µM
NCI-H748
  IC50: > 8 µM
TUR
  IC50: > 8 µM
RT-4
  IC50: > 8 µM
MC-IXC
  IC50: > 8 µM
LCLC-97TM1
  IC50: 2120 nM
KMS-12-PE
  IC50: > 8 µM
SR
  IC50: 1880 nM
TGW
  IC50: > 8 µM
KYSE-150 cell line
  IC50: > 8 µM
Hs-578T
  IC50: > 8 µM
CMK
  IC50: 2750 nM
CAMA-1
  IC50: > 8 µM
TCC-SUP
  IC50: > 8 µM
HOP-92
  IC50: > 8 µM
NCI-H2009
  IC50: > 8 µM
NCI-H460
  IC50: > 8 µM
RMG-I
  IC50: > 8 µM
IST-SL2
  IC50: > 8 µM
OVCAR-8
  IC50: > 8 µM
NUGC-3
  IC50: > 8 µM
HMV-2 cell line
  IC50: 793 nM
Ca-Ski
  IC50: > 8 µM
SW1783
  IC50: 6.17 µM
T47D
  IC50: > 8 µM
HCC2157
  IC50: > 8 µM
U-251
  IC50: > 8 µM
CAL-54
  IC50: > 8 µM
SW756
  IC50: > 8 µM

## C/C(O)=C(\C#N)C(=O)Nc1cc(Br)ccc1Br
IPC-298
  IC50: > 16 µM
SNU-16
  IC50: > 16 µM
NB1
  IC50: > 16 µM
MHH-CALL-2
  IC50: > 16 µM
MG-63
  IC50: > 16 µM
CAL-33
  IC50: > 16 µM
DMS-153
  IC50: > 16 µM
MC-CAR
  IC50: > 16 µM
CAL-39
  IC50: > 16 µM
NCI-H596
  IC50: > 16 µM
NCI-H2347
  IC50: > 16 µM
RPMI-2650
  IC50: > 16000 nM
DG-75
  IC50: > 16 µM
EFM-19
  IC50: > 16 µM
NCI-H64
  IC50: > 16 µM
YKG-1
  IC50: > 16 µM
HCT-116
  IC50: > 16 µM
DK-MG
  IC50: > 16 µM
SW780
  IC50: > 16 µM
EW-7
  IC50: > 16 µM
HuO-3N1
  IC50: > 16000 nM
SJRH30
  IC50: > 16 µM
PA-1
  IC50: > 16000 nM
T-24
  IC50: > 16 µM
AN3-CA
  IC50: > 16000 nM
Calu-1
  IC50: > 16 µM
VMRC-RCZ
  IC50: > 16 µM
C3A
  IC50: > 16000 nM
HCC38
  IC50: > 16 µM
SNU-423
  IC50: > 16000 nM
HN
  IC50: > 16 µM
CAL-27
  IC50: > 16 µM
NCI-H748
  IC50: > 16 µM
TUR
  IC50: > 16 µM
RT-4
  IC50: > 16 µM
MC-IXC
  IC50: > 16 µM
LCLC-97TM1
  IC50: > 16000 nM
KMS-12-PE
  IC50: > 16 µM
SR
  IC50: > 16000 nM
TGW
  IC50: > 16 µM
KYSE-150 cell line
  IC50: > 16 µM
Hs-578T
  IC50: > 16 µM
CMK
  IC50: > 16000 nM
CAMA-1
  IC50: > 16 µM
TCC-SUP
  IC50: > 16 µM
HOP-92
  IC50: > 16 µM
NCI-H2009
  IC50: > 16 µM
NCI-H460
  IC50: > 16 µM
RMG-I
  IC50: > 16 µM
IST-SL2
  IC50: > 16 µM
OVCAR-8
  IC50: > 16 µM
NUGC-3
  IC50: > 16 µM
HMV-2 cell line
  IC50: > 16000 nM
Ca-Ski
  IC50: > 16 µM
SW1783
  IC50: > 16 µM
T47D
  IC50: > 16 µM
HCC2157
  IC50: > 16 µM
U-251
  IC50: > 16 µM
CAL-54
  IC50: > 16 µM
SW756
  IC50: > 16 µM
